Test results taken from patent publication US11236069B2, “KIF18A inhibitors” (AMGEN INC., priority 2018, dated 2022).

The compounds below were run against Recombinant human KIF18A (1-467 His-tagged) protein (Homo sapiens (Human), UniProt Q8NI77) (assay: KIF18A Enzyme Assay: microtubule-stimulated ATPase activity (ADP-Glo)). Conditions: read-out: KIF18A ATPase IC50; 30 nM KIF18A, 30 μg/mL pig microtubules, ATP at Km 75 μM, ADP-Glo luminescence.
Sequence of Recombinant human KIF18A (1-467 His-tagged) protein (Q8NI77 1-467): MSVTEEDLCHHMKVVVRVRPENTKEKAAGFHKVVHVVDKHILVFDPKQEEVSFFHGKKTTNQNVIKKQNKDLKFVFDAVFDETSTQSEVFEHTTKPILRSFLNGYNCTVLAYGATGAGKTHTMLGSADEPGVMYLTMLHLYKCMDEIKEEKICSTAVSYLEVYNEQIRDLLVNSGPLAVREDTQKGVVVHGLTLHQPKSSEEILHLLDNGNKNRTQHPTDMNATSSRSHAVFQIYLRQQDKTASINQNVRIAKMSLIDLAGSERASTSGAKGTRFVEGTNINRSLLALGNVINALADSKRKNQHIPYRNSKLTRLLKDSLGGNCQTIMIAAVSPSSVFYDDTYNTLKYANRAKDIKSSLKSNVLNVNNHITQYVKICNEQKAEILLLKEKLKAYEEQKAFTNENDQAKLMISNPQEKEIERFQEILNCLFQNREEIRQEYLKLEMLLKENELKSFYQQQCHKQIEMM
Sequence of Recombinant human KIF18A (1-467 His-tagged) protein (P02550 whole entry partner): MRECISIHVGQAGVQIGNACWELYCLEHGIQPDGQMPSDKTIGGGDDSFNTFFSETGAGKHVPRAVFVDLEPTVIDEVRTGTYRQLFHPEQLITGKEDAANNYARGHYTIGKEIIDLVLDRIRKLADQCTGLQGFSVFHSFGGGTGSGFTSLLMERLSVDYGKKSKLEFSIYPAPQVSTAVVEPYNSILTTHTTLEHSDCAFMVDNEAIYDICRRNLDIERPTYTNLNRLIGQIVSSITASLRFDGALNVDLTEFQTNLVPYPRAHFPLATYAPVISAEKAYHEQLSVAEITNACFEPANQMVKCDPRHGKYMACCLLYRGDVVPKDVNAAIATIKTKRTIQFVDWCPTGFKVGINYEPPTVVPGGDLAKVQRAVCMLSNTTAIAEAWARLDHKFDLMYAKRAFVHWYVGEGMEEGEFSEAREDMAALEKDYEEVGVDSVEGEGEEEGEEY
Sequence of Recombinant human KIF18A (1-467 His-tagged) protein (P02554 whole entry partner): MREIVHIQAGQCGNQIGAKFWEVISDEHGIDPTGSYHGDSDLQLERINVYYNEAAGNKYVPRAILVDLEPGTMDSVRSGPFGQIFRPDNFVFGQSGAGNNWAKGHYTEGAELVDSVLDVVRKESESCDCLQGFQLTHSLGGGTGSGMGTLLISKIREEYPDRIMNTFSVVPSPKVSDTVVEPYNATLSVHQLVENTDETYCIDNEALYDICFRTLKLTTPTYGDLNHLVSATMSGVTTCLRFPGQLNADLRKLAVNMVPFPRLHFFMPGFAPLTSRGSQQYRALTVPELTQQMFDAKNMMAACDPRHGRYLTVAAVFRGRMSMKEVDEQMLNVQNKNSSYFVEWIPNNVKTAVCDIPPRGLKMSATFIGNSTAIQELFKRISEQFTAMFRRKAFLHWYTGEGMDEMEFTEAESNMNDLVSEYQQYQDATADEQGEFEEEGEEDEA
Description: KIF18A Enzyme Assay: Microtubule-stimulated ATPase activity assay is used to measure KIF18A enzyme activity after treatment with compound. Compounds were 2-fold serially diluted in DMSO (Sigma Inc) over 22-point concentration range. […] The assay measures ADP formed from the ATPase reaction.

| IC50 [nM] | SMILES |
| --- | --- |
| 57 | Cc1cc(NC(=O)c2ccc([S@@](=N)(=O)C3CC3)cc2N2CCC3(CC2)CC3)nc(N2CCC(F)(F)CC2)n1 (single isomer, unassigned) [Example 18-2, 2-(6-Azaspiro[2.5]octan-6-yl)-4-(S-cyclopropylsulfonimidoyl)-N-(2-(4,4-difluoro-1-piperidinyl)-6-methyl-4-pyrimidinyl)benzamide] |
| 94 | Cc1cc(NC(=O)c2ccc(NS(=O)(=O)C3(C)CC3)cc2N2CCC3(CC2)CC3)nc(N2CC(F)(F)C2)n1 [Example 11-74, N-(2-(3,3-Difluoroazetidin-1-yl)-6-methylpyrimidin-4-yl)-4-((1-methylcyclopropane)-1-sulfonamido)-2-(6-azaspiro[2.5]octan-6-yl)benzamide] |
| 128 | Cc1cc(NC(=O)c2ccc(S(=O)(=O)C(C)C)cc2N2CCC3(CC2)CC3)nc(N2CCC(F)(F)CC2)n1 [Example 14-3, N-(2-(4,4-Difluoropiperidin-1-yl)-6-methylpyrimidin-4-yl)-4-(isopropylsulfonyl)-2-(6-azaspiro[2.5]octan-6-yl)benzamide] |
| 135 | Cc1cc(NC(=O)c2ccc(NS(=O)(=O)[C@H]3CCOC3)cc2N2CCC3(CC2)CC3)nc(N2CCC(F)(F)CC2)n1 [Example 11-72, (S)-N-(2-(4,4-Difluoropiperidin-1-yl)-6-methylpyrimidin-4-yl)-2-(6-azaspiro[2.5]octan-6-yl)-4-((tetrahydrofuran)-3-sulfonamido)benzamide] |

The next lines start with the compound.

| SMILES | IC50 [nM] |
| --- | --- |
| Cc1cc(NC(=O)c2ccc(NS(=O)(=O)CCO)cc2N2CCC3(CC2)CC3)nc(N2CCCCC2)n1 [Example 11-36, 4-((2-Hydroxyethyl)sulfonamido)-N-(6-methyl-2-(piperidin-1-yl)pyrimidin-4-yl)-2-(6-azaspiro[2.5]octan-6-yl)benzamide] | 82 |
| Cc1cc(NC(=O)c2ccc(NS(=O)(=O)C[C@H](C)O)cc2N2CCC3(CC2)CC3)nc(OCCC(F)(F)F)n1 [Example 6-28-2, (S)-4-((2-Hydroxypropyl)sulfonamido)-N-(6-methyl-2-(3,3,3-trifluoropropoxy)pyrimidin-4-yl)-2-(6-azaspiro[2.5]octan-6-yl)benzamide] | 71 |
| Cc1cc(NC(=O)c2ccc(NS(=O)(=O)CCO)cc2N2CCC3(CC2)CC3)nc(N2CC[C@H]3C[C@H]3C2)n1 [Example 11-43, N-(2-((1R,6R)-3-Azabicyclo[4.1.0]heptan-3-yl)-6-methylpyrimidin-4-yl)-4-((2-hydroxyethyl)sulfonamido)-2-(6-azaspiro[2.5]octan-6-yl)benzamide] | 35 |
| Cc1cc(NC(=O)c2ccc(S(=O)(=O)NC3(C)COC3)cc2N2CCC3(CC2)CC3)nc(N2CCC(F)(F)CC2)n1 [Example 2-5, N-(2-(4,4-Difluoropiperidin-1-yl)-6-methylpyrimidin-4-yl)-4-(N-(3-methyloxetan-3-yl)sulfamoyl)-2-(6-azaspiro[2.5]octan-6-yl)benzamide] | 103 |
| O=C(Nc1ccnc(N2CCC(F)(F)CC2)n1)c1ccc(NS(=O)(=O)CCO)cc1N1CCC2(CC1)CC2 [Example 11-57, N-(2-(4,4-Difluoropiperidin-1-yl)pyrimidin-4-yl)-4-((2-hydroxyethyl)sulfonamido)-2-(6-azaspiro[2.5]octan-6-yl)benzamide] | 22 |
| Cc1cc(NC(=O)c2ccc(NS(=O)(=O)C[C@@H](C)O)cc2N2CCC3(CC2)CC3)nc(N2CCC(F)(F)CC2)n1 [Example 6-32-1, (R)-N-(2-(4,4-Difluoropiperidin-1-yl)-6-methylpyrimidin-4-yl)-4-((2-hydroxypropyl)sulfonamido)-2-(6-azaspiro[2.5]octan-6-yl)benzamide] | 112 |
| Cc1cc(NC(=O)c2ccc(NS(=O)(=O)CCO)cc2N2CCC3(CC2)CC3)nc(N2CCC[C@@H](C#N)C2)n1 [Example 11-34, (R)-N-(2-(3-Cyanopiperidin-1-yl)-6-methylpyrimidin-4-yl)-4-((2-hydroxyethyl)sulfonamido)-2-(6-azaspiro[2.5]octan-6-yl)benzamide] | 92 |
